Assay results as given in the NIST ThermoML archive (doi:10.1021/acs.jced.8b00157).

Test: an = ratio of the nth substance listed
Details: 100 kPa, Liquid, Buoyancy - hydrostatic balance

[F][Al]([F])[F] [aluminum fluoride] + [F-].[K+]
mass density [kg/m3]
Details	a2 = 1.3	a2 = 1.5
1068.5 K	1772	–
1068.7 K	–	1790
1069.1 K	–	1790
1069.3 K	1772	–
1069.4 K	1771	–
1069.6 K	1771	1790
1069.9 K	–	1789
1070.1 K	1771	–
1070.2 K	–	1789
1070.5 K	1771	–
1070.7 K	–	1788
1071.1 K	–	1788
1071.2 K	1770	–
1071.3 K	1770	–
1071.4 K	–	1788
1071.9 K	1769	1787
1072 K	1769	–
1072.3 K	–	1787
1072.6 K	1768	–
1072.7 K	1768	1787
1073 K	–	1787
1073.4 K	1768	1787
1073.7 K	–	1786
1073.8 K	1767	–
1073.9 K	1767	–
1074.1 K	–	1786
1074.5 K	–	1786
1074.7 K	1766	–
1074.9 K	–	1786
1075.2 K	–	1785
1075.3 K	1766	–
1075.4 K	–	1785
1075.5 K	1766	–
1075.6 K	–	1784
1076 K	1765	–
1076.2 K	–	1784
1076.4 K	1765	–
1076.5 K	1765	–
1076.6 K	–	1784
1076.7 K	1765	–
1077 K	–	1784
1077.3 K	–	1783
1077.4 K	1763	–
1077.7 K	–	1783
1078.1 K	–	1783
1078.2 K	1762	–
1078.3 K	1762	1782
1078.4 K	1761	–
1078.7 K	–	1782
1079.1 K	1761	1782
1079.4 K	–	1782
1079.5 K	1760	–
1079.7 K	1760	1781
1080.2 K	–	1781
1080.5 K	–	1780
1080.7 K	1760	–
1080.8 K	1759	–
1081 K	–	1780
1081.2 K	1759	–
1081.3 K	–	1780
1081.4 K	1759	–
1081.6 K	1758	–
1081.7 K	1757	–
1081.8 K	–	1780
1082.1 K	–	1779
1082.4 K	1758	–
1082.5 K	–	1779
1082.7 K	1757	–
1082.8 K	1757	1779
1083.2 K	–	1779
1083.6 K	–	1778
1083.9 K	1756	1778
1084.1 K	1756	–
1084.3 K	–	1778
1084.4 K	1756	–
1084.8 K	–	1778
1084.9 K	1756	–
1085.1 K	–	1777
1085.4 K	1755	–
1085.5 K	–	1777
1085.6 K	1755	–
1085.9 K	–	1776
1086.2 K	1754	–
1086.4 K	1754	1776
1086.6 K	–	1776
1086.9 K	1754	–
1087 K	1754	–
1087.1 K	–	1776
1087.6 K	–	1775
1087.7 K	1753	–
1088 K	1753	1775
1088.2 K	1753	–
1088.3 K	1752	–
1088.4 K	–	1775
1088.8 K	1752	1775
1089.2 K	–	1774
1089.3 K	1751	–
1089.6 K	–	1774
1089.7 K	1751	–
1089.9 K	–	1774
1090.4 K	1751	1774
1090.5 K	1751	–
1090.7 K	–	1773
1091 K	1750	–
1091.1 K	–	1773
1091.2 K	1750	–
1091.6 K	–	1772
1091.7 K	1750	–
1092 K	–	1772
1092.2 K	1749	–
1092.3 K	1749	1772
1092.5 K	1748	–
1092.6 K	1748	–
1092.7 K	–	1772
1093.2 K	–	1771
1093.5 K	1747	1771
1093.8 K	1748	–
1093.9 K	–	1771
1094.2 K	1747	–
1094.3 K	–	1771
1094.7 K	–	1770
1094.8 K	1747	–
1094.9 K	1747	–
1095 K	1746	–
1095.1 K	–	1770
1095.3 K	1746	–
1095.5 K	1745	1770
1095.8 K	–	1769
1096.1 K	1745	–
1096.2 K	1745	–
1096.3 K	–	1769
1096.4 K	1744	–
1096.6 K	–	1769
1096.7 K	1744	–
1097 K	–	1769
1097.1 K	1744	–
1097.2 K	1744	–
1097.4 K	–	1768
1097.6 K	1744	–
1097.9 K	–	1768
1098.1 K	1743	1767
1098.3 K	1743	–
1098.5 K	–	1767
1098.6 K	1743	–
1098.8 K	1742	–
1098.9 K	1742	–
1099 K	–	1767
1099.4 K	–	1767
1099.5 K	1742	–
1099.6 K	1742	–
1099.8 K	–	1766
1100.1 K	1741	–
1100.2 K	–	1766
1100.4 K	1741	–
1100.6 K	1741	1766
1100.9 K	1740	1766
1101 K	1741	–
1101.2 K	1740	1765
1101.7 K	1740	1765
1101.8 K	1739	–
1101.9 K	1739	–
1102.1 K	–	1765
1102.4 K	–	1765
1102.5 K	1739	–
1102.9 K	–	1764
1103.4 K	–	1764
1103.6 K	–	1763
1104.1 K	–	1763
1104.5 K	–	1763
1104.8 K	–	1763
1105.2 K	–	1762
1105.7 K	–	1762
1105.9 K	–	1762
1106.4 K	–	1762
1106.7 K	–	1761
1107.3 K	–	1761
1107.7 K	–	1761
1108 K	–	1761
1108.5 K	–	1760
1108.8 K	–	1760
1109.3 K	–	1759
1109.7 K	–	1759
1110.1 K	–	1759
1110.5 K	–	1759
1111 K	–	1758
1111.3 K	–	1758
1111.7 K	–	1758
1112.1 K	–	1757
1112.6 K	–	1757
1112.9 K	–	1757
1113.2 K	–	1757
1113.7 K	–	1756
1114.2 K	–	1756
1114.6 K	–	1755
1114.9 K	–	1755
1115.3 K	–	1755
1115.7 K	–	1754
1116.1 K	–	1754
1116.5 K	–	1754
1117 K	–	1754
1117.4 K	–	1753
1117.8 K	–	1753
1118.3 K	–	1753
1118.7 K	–	1752
1119.2 K	–	1752
1119.4 K	–	1751
1119.9 K	–	1751
1120.3 K	–	1751
1120.6 K	–	1751
1121.2 K	–	1750
1121.5 K	–	1750
1122 K	–	1750
1122.4 K	–	1750
1122.8 K	–	1749
1123.3 K	–	1749
